Assay results from ChEMBL document CHEMBL2016510 (J Med Chem, 2012).
pEC50, pIC50: −log10 of the molar value. Values belong to the compound of their own block, whether it stands above or below them.

Tests used:
HepG2 = assay: Cytotoxicity against human HepG2 cells assessed as cell viability after 2 hrs by MTT assay; type: cell-based; settings: HepG2, 2 h
[1] = Negative inotropic activity in guinea pig left atria assessed as decrease of 1 Hz current-induced developed tension; type: functional, tissue-based; settings: Cavia porcellus, Cardiac atrium
[2] = Negative chronotropic activity in guinea pig spontaneously beating right atria assessed as decrease in atrial rate; type: functional; settings: Cavia porcellus, Cardiac atrium
[3] = Antiarrhythmic activity in guinea pig left atria assessed as increase of 1 Hz-induced alternating current arrhythmia at 10^-4 M after 60 mins relative to control; type: functional; settings: Cavia porcellus, Cardiac atrium, 1 h
[4] = Antiarrhythmic activity in guinea pig left atria assessed as increase of 1 Hz-induced alternating current arrhythmia after 60 mins; type: functional, tissue-based; settings: Cavia porcellus, Cardiac atrium, 1 h
Aorta = assay: Vasorelaxant activity in potassium depolarized guinea pig aortic strip assessed as inhibition of calcium-induced contraction at 10^-4 M; type: functional, Cavia porcellus; set-up: scale not given: the % may be the effect or the level left
[5] = Negative inotropic activity in guinea pig left atria assessed as decrease of 1 Hz current-induced developed tension at 5 x 10^-5 M relative to control; type: functional, Cavia porcellus, Cardiac atrium; set-up: scale not given: the % may be the effect or the level left
[6] = Antiarrhythmic activity in guinea pig left atria assessed as increase of 1 Hz-induced alternating current arrhythmia at 5 x 10^-5 M after 60 mins relative to control; type: functional; settings: Cavia porcellus, Cardiac atrium, 1 h
[7] = Negative chronotropic activity in guinea pig spontaneously beating right atria assessed as decrease in atrial rate at 5 x 10^-5 M relative to control; type: functional, Cavia porcellus, Cardiac atrium; set-up: scale not given: the % may be the effect or the level left
[8] = […] chronotropic activity in guinea pig spontaneously beating right atria assessed as decrease in atrial rate at 10^-4 M relative to control; type: functional, Cavia porcellus, Cardiac atrium; set-up: scale not given: the % may be the effect or the level left
[9] = Negative inotropic activity in guinea pig left atria assessed as decrease of 1 Hz current-induced developed tension at 5 x 10^-7 M relative to control; type: functional, Cavia porcellus, Cardiac atrium; set-up: scale not given: the % may be the effect or the level left
Mus musculus = assay: Neurotoxicity in mouse assessed as deffect in motor coordination at 25 to 50 mg/kg, po after 15 to 45 mins by rotarod test; type: toxicity, organism-based; set-up: route oral; settings: in vivo
Caco-2 [10] = assay: Apparent permeability from apical to basolateral side in human Caco2 cells after 21 days by UV spectroscopy; type: ADME, cell-based
Caco-2 [11] = assay: Apparent permeability from basolateral to apical side in human Caco2 cells after 21 days by UV spectroscopy; type: ADME, cell-based
[12] = Negative chronotropic activity in guinea pig spontaneously beating right atria assessed as decrease in atrial rate at 10^-4 M relative to control; type: functional, Cavia porcellus, Cardiac atrium; set-up: scale not given: the % may be the effect or the level left
[13] = target: T1, Sodium channel protein type 5 subunit alpha (Homo sapiens, UniProt Q14524); assay: Blockade of human full-length NaV1.5 expressed in HEK293 cells co-transfected with pCD8-IRES-hbeta1 assessed as 10 Hz of use-dependent-induced channel current at -120 mV holding potential after 36 to 72 hrs by patch clamp assay; type: cell-based
T1 sequence (Q14524 whole entry): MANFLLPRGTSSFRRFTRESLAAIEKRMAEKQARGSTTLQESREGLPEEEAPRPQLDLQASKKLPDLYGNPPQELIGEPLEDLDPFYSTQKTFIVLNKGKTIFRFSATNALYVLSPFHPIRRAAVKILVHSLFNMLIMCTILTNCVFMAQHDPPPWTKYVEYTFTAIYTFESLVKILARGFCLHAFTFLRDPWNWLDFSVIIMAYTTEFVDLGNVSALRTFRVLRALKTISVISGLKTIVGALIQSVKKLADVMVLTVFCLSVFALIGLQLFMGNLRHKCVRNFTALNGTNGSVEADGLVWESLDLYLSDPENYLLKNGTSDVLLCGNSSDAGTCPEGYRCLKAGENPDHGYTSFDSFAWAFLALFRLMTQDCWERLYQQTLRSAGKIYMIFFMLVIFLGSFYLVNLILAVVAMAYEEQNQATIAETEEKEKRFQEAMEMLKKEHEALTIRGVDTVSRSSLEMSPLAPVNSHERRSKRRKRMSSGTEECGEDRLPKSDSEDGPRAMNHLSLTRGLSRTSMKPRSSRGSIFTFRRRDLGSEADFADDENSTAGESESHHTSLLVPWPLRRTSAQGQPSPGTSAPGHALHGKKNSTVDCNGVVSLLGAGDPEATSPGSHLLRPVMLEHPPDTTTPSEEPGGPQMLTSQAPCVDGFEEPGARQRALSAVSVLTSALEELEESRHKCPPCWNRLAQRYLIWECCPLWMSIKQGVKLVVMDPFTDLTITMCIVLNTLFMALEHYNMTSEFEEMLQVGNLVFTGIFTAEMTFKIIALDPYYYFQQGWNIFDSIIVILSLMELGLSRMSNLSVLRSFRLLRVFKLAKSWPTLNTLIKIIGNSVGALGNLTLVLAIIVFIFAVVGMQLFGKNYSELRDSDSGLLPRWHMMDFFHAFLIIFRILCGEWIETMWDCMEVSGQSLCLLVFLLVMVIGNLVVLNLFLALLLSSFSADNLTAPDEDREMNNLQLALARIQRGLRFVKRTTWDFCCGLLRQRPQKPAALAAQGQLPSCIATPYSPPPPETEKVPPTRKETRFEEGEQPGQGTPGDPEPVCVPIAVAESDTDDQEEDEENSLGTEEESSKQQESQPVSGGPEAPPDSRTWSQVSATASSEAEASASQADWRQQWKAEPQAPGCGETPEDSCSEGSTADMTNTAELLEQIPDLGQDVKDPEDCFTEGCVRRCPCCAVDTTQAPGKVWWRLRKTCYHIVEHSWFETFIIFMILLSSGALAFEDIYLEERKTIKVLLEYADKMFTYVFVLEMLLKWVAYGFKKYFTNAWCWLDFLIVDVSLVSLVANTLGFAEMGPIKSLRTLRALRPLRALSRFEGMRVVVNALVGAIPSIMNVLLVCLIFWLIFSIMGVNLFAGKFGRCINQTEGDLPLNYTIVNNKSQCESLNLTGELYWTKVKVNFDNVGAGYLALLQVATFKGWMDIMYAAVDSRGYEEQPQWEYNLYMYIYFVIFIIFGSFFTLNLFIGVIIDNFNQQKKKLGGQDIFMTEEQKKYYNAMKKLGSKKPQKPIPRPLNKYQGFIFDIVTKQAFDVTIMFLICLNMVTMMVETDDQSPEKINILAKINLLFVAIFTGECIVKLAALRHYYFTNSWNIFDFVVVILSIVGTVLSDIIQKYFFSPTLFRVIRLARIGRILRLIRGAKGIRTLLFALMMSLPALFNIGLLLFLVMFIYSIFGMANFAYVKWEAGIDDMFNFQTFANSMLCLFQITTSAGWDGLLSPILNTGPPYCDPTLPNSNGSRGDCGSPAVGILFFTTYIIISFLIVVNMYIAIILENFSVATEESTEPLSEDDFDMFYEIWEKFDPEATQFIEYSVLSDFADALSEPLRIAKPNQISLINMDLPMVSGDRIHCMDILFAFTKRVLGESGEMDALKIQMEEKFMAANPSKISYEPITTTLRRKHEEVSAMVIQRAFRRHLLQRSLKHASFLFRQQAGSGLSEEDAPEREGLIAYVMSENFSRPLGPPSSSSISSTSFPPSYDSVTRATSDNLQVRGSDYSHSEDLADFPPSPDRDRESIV

Caco-2 [14] = assay: Efflux ratio of permeability from basolateral to apical side to apical to basolateral side in human Caco2 cells after 21 days by UV spectroscopy; type: ADME, cell-based
[15] = target: T1, Sodium channel protein type 5 subunit alpha; assay: Blockade of human full-length NaV1.5 expressed in HEK293 cells co-transfected with pCD8-IRES-hbeta1 assessed as 0.1 Hz of half-maximal tonic-induced channel current at -120 mV holding potential after 36 to 72 hrs by patch clamp assay; type: cell-based
[16] = Negative inotropic activity in guinea pig left atria assessed as decrease of 1 Hz current-induced developed tension at 10^-6 M relative to control; type: functional, Cavia porcellus, Cardiac atrium; set-up: scale not given: the % may be the effect or the level left
[17] = […] chronotropic activity in guinea pig spontaneously beating right atria assessed as decrease in atrial rate at 5 x 10^-6 M relative to control; type: functional, Cavia porcellus, Cardiac atrium; set-up: scale not given: the % may be the effect or the level left
[18] = Negative inotropic activity in guinea pig left atria assessed as decrease of 1 Hz current-induced developed tension at 10^-4 M relative to control; type: functional, Cavia porcellus, Cardiac atrium; set-up: scale not given: the % may be the effect or the level left

pEC50 [1]: 7.35
SMILES: Cc1cccc(C)c1OCC(C)N (racemic) [MEXILETINE]
pEC50 (HepG2): 2.70
EC30 [2]: 0.014 µM
Emax at 100 µM [3]: 64%
pEC50 [4]: 4.94
Activity (Aorta): 5%

pEC50 [1]: 7.85
SMILES: CCN(CC)CCOC(=O)c1ccc(N)cc1 [PROCAINE]
Activity [8]: 9%
Activity [9]: 92%
Activity (Aorta): 3%

pEC50 [1]: 7.01
Papp (Caco-2 [10]): 300.6 ×10⁻⁶ cm/s
Papp (Caco-2 [11]): 142.5 ×10⁻⁶ cm/s
Ratio (Caco-2 [14]): 2.1
SMILES: Cc1ccc(O)c(C)c1OCC(C)N (racemic)
pEC50 (HepG2): < 2.70
Emax at 100 µM [3]: 72%
pEC50 [4]: 4.99
Activity [5]: 96%
Activity (Mus musculus): Non-toxic
Activity [12]: 39%
pIC50 [13]: 4.52
Activity (Aorta): 19%
pIC50 [15]: 3.76

pEC50 [1]: 7.77
SMILES: CCN(CC)CC(=O)Nc1c(C)cccc1C [LIDOCAINE]
Activity [16]: 88%
Emax at 50 µM [6]: 34%
Activity [17]: 29%
Activity (Aorta): 14%

Further lines, the compound ahead of its results:

SMILES: C=C[C@H]1CN2CC[C@H]1C[C@@H]2[C@@H](O)c1ccnc2ccc(OC)cc12 [QUINIDINE]
EC30 [2]: 3.99 µM
Activity [5]: 71%
Emax at 50 µM [6]: 69%
Activity [7]: 86%
Activity (Aorta): 30%

SMILES: CCCCc1oc2ccccc2c1C(=O)c1cc(I)c(OCCN(CC)CC)c(I)c1 [AMIODARONE]
Emax at 100 µM [3]: 10%
Activity [18]: 30%
Activity [12]: 72%
Activity (Aorta): 3%

SMILES: CCN(CC)CCNC(=O)c1ccc(N)cc1 [PROCAINAMIDE]
Emax at 50 µM [6]: 11%
